Measured values: ChEMBL document CHEMBL1138663, “Synthesis and aromatase inhibitory activity of novel pyridine-containing isoflavones” (J Med Chem, 2004)
pKi: −log10 of the molar value.

Molecular target: T1, Aromatase (Homo sapiens, UniProt P11511)
T1 sequence (P11511 whole entry): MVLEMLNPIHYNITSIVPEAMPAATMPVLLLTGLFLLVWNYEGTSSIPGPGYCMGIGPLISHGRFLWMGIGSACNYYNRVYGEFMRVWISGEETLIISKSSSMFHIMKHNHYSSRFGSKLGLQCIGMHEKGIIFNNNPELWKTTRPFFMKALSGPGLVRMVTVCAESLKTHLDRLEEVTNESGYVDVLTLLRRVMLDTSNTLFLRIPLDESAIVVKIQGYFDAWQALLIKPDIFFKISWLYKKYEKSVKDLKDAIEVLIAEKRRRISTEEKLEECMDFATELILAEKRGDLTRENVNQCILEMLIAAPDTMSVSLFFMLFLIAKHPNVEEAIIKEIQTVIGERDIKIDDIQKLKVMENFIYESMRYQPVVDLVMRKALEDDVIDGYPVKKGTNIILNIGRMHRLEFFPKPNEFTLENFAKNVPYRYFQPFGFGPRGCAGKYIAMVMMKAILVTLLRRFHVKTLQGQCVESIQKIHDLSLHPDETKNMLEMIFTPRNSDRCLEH

pKi: 3.91
Compound: O=c1c(-c2ccc(O)cc2)coc2cc(O)cc(O)c12 [GENISTEIN]
